Measurements published in paper PMC12040169 (PLOS Biology, 2025).

Assay: in vitro
Settings: human, hela cells, % viability

| SMILES | viability at 28.5 h, 10 µM [%] | viability at 28.5 h, 10 µM (bulk resorufin, single well) [%] |
| --- | --- | --- |
| O=C(Cc1cccs1)N1CCC(O)(c2cccnc2)CC1 [CBK283501] | 104 | – |
| CCOc1ccc(Cl)cc1CN(C)C(=O)NCC(c1ccco1)N(C)C (centres unmarked) [CBK307013] | 88 | – |
| Cc1cc(-c2csc(CC(C)n3cc(Cl)cn3)n2)on1 (centres unmarked) [CBK304700] | 91.3 | – |
| O=c1n(Cc2cccnc2)c2cccnc2n1Cc1cccs1 [CBK283903] | 89.7 | – |
| O=C(NC1CCN(C(=O)Cn2ccc3ccncc32)CC1)C1CC1 [CBK284731] | 98.9 | – |
| OCCC1CNCCN1Cc1ccc(F)c(F)c1 (centres unmarked) [CBK269824] | 85.6 | – |
| CC(=O)NCCc1ccc(S(=O)(=O)N2CCN(Cc3ccccc3)CC2)cc1 [CBK268458] | 94.8 | – |
| COc1ccc(Br)cc1S(=O)(=O)Nc1c(C(=O)O)[nH]c2ccccc12 [CBK049887] | 97.5 | – |
| N#CCCN(C(=O)Nc1ccc2c(c1)OCCO2)C1CCCCC1 [CBK156364] | 92.3 | – |
| Cc1cc(NC(=O)c2ccccc2)n(-c2nc(C)c(C)c(=O)[nH]2)n1 [CBK287655] | 105 | – |
| Cc1c(-c2ccc(Cl)cc2Cl)nc2ccccc2c1C(=O)NCc1ccc(S(N)(=O)=O)cc1 [CBK265387] | 101 | – |
| O=C(NC(Nc1ncccn1)C(Cl)(Cl)Cl)c1ccccc1 (centres unmarked) [CBK261408] | 107 | – |
| CN(C(=O)c1ccc(-n2nncc2-c2ccccc2)cc1)c1ccccc1 [CBK288107] | 108 | – |
| CCSc1ccccc1-c1nc2c(=O)n(C)c(-c3ccc(CN4CCCC4)cc3)cc2o1 [CBK200426T] | 77.9 | – |
| Cn1c(=O)c2c(nc(CN3CCOCC3)n2CC(=O)c2ccccc2)n(C)c1=O [CBK269195] | 93.2 | – |
| Fc1ccc2nc(NCC3CCCO3)sc2c1 (centres unmarked) [CBK287647] | 110 | – |
| CC(C)c1ccnc(C(C)Sc2nc(N)c(Br)c(Cl)n2)c1 (centres unmarked) [CBK016828] | 86.1 | – |
| COc1ncc(-c2nccnc2N[C@H](C)c2ccccc2)c(OC)n1 [CBK036588] | 83.7 | – |
| Cc1ccc2nc(N3CCCC(O)C3)c(CN3CCSCC3)cc2c1 (centres unmarked) [CBK307000] | 94.7 | – |
| Cc1cc2nc(N3CCN(C(=O)c4ccc(C#N)cc4)CC3)sc2cc1C [CBK287737] | 98.8 | – |
| CN1CCC2(CCC1=O)CC(NC(=O)C1CC1)c1ccccc1O2 (centres unmarked) [CBK284455] | 93.3 | – |
| O=C(COc1ccccc1)NC(=S)Nc1cccc(-c2nc3ccccc3s2)c1 [CBK264360] | 107 | – |
| COc1ccccc1CNc1ccc(C(=O)O)cc1 [CBK078187] | 106 | – |

| SMILES | viability at 28.5 h, 10 µM [%] | viability at 28.5 h, 10 µM (bulk resorufin, single well) [%] |
| --- | --- | --- |
| COc1ccc(NC(=O)c2ccc(-c3nnn[nH]3)cc2)cc1OC [CBK295138] | 97.7 | – |
| CCCc1ccc(S(=O)(=O)N2CCN(Cc3ccc4c(c3)OCO4)CC2)cc1 [CBK074735] | 107 | – |
| CN(C)CCN(Cc1ccncc1)Cc1ccsc1 [CBK283206] | 102 | – |
| O=C1NC(=S)N(Cc2ccccc2)C(=O)C1(CCc1ccncc1)CCc1ccncc1 [CBK269137] | – | 106 |
| CC1(C)Cc2c(cnn2-c2ccc(F)cc2)C(NS(C)(=O)=O)C1 (centres unmarked) [CBK307403] | 92.3 | – |
| CC(C)n1nnnc1-c1ccccc1NS(=O)(=O)C1CC1 [CBK305509] | 97.7 | – |
| CCCN(C(=O)CCn1c(=O)oc2cc(Cl)ccc21)C1CCNC1 (centres unmarked) [CBK304311C] | 90.5 | – |
| CC(=O)c1c(-c2ccc(C)cc2)nc2n(CCN3CCCCC3)c3ccccc3n12 [CBK278231C] | 101 | – |
| Cc1n[nH]c(C)c1CC(=O)NC(Cc1ccsc1)c1ccccn1 (centres unmarked) [CBK285271] | 105 | – |
| CCOC(=O)c1c(NC(=O)C2C3CCC(C3=C(C)C)C2C(=O)O)sc2c1CCCCC2 (centres unmarked) [CBK265439] | 106 | – |
| O=S(=O)(c1cccc(C(F)(F)F)c1)N1CCN(Cc2ccc3c(c2)OCO3)CC1 [CBK074594] | 89.8 | – |
| CN1CCN(c2ccc(S(=O)(=O)Nc3cc(C(=O)O)cc(C(=O)O)c3)cc2[N+](=O)[O-])CC1 [CBK263862] | 96.8 | – |
| O=C(NCc1ccc(F)cc1)Nc1ccccc1F [CBK115584] | 98.9 | – |
| O=C1/C(=C/c2ccccc2)S/C(=N/N=C/c2ccccc2)N1c1ccc(O)cc1 [CBK262803] | 89.6 | – |
| COc1ccc(C(=O)N2CCC3(CCN(Cc4ccc(Cl)c(Cl)c4)C3)C2)cc1OC (centres unmarked) [CBK132150] | 97.3 | – |
| O=C(OCCN1C[C@H]2CCCCC2C1c1ccccc1)c1ccc(Br)cc1 (some centres unmarked) [CBK016175C] | 104 | – |
| O=C(Cc1c(Cl)cccc1Cl)Nc1ccc2[nH]ccc2c1 [CBK159664] | 113 | – |
| N#Cc1cccc(C(=O)NCC2(N3CCOCC3)CCSC2)c1 (centres unmarked) [CBK306344] | 121 | – |
| COCCN(Cc1cn2cccc(C(=O)OC)c2n1)Cc1ccco1 [CBK305366] | 97.8 | – |
| COc1ccc(-c2noc(CNC(=O)Nc3ccc(F)cc3)n2)cc1OC [CBK269784] | 97.2 | – |
| CCCCN(C)c1c(CC)nc2ccc(C(=O)NC3=NC(=O)CS3)cn12 [CBK145464] | 102 | – |
| CN1CCN(C(=O)C2CCN(S(=O)(=O)c3ccc4ccccc4c3)CC2)CC1 [CBK269504] | 88.1 | – |
| Cc1ccc(S(=O)(=O)OC[C@H]2O[C@@H](n3cc(C)c(=O)[nH]c3=O)C[C@H]2O)cc1 [CBK201165] | 88.1 | – |

| SMILES | viability at 28.5 h, 10 µM [%] | viability at 28.5 h, 10 µM (bulk resorufin, single well) [%] |
| --- | --- | --- |
| Cc1cc(C)n(C(C)C(=O)N(C)CCn2ccnc2C)n1 (centres unmarked) [CBK281759] | 88.1 | – |
| Clc1cccc(Nc2cncc(-c3cccc4ccccc34)n2)c1 [CBK065764] | 93.4 | – |
| CCN(CCO)C(=O)c1coc(COc2ccc3sc(C)nc3c2)n1 [CBK307321] | 89.7 | – |
| COc1cc(C)c(C)cc1S(=O)(=O)n1ccnc1C [CBK287579] | 108 | – |
| CCn1c(SCC(=O)Nc2ccc(N3CCOCC3)cc2)nnc1-c1ccncc1 [CBK269765] | 89.7 | – |
| COc1ccc2sc(C)nc2c1 [CBK028488] | 101 | – |
| O=C1C2CCCCN2C(=O)N1c1cccnc1 (centres unmarked) [CBK162359] | 114 | – |
| CN(C)[C@@H]1CN(Cc2ccccc2O)C[C@H]1c1cn(C)c2ccccc12 [CBK284895] | 88.3 | – |
| Cc1ccc(Cn2nc(C(=O)NCC3COc4ccccc4O3)c3ccccc32)cc1 (centres unmarked) [CBK047831] | – | 91.2 |
| CN(C)CCCC(O)(c1ccccc1)c1ccccc1 [CBK012599] | 109 | – |
| COc1ccc2nc(-c3ccc(F)c(NC(=O)c4ccccc4)c3)cn2n1 [CBK287827] | 110 | – |
| CCn1c(SCc2cc(C)no2)nnc1C1CC1 [CBK297758] | 102 | – |
| O=C(Nc1cccc2cccnc12)c1ccc(Cl)c(Cl)c1 [CBK261318] | 91.5 | – |
| CNCC1CCCN1S(=O)(=O)c1ccc(OCc2ncnn2C)cc1 (centres unmarked) [CBK304500] | 90 | – |
| CN1CCN(C2Cc3ccccc3Sc3c(O)cccc32)CC1 (centres unmarked) [CBK026200G] | 98 | – |
| COc1ccccc1-c1cn2ccnc2c(N2CCCC2CO)n1 (centres unmarked) [CBK037266] | 96.5 | – |
| CC1CCCCC1NC(=O)CSc1nnc(CN2CCOCC2)n1C (centres unmarked) [CBK266662] | 102 | – |
| O=C1C2C3C=CC(C3)C2C(=O)N1CCNCCO (centres unmarked) [CBK264414] | 93 | – |
| CCn1cc(C2CN(S(=O)(=O)Cc3ccccc3)CCO2)cn1 (centres unmarked) [CBK304129] | 106 | – |
| CN(C)c1cccc(-c2nc(-c3ccco3)cnc2N)c1 [CBK063970] | 89.2 | – |
| O=[N+]([O-])c1ccc(-c2nc3ccc(Br)cn3[n+]2[O-])cc1 [CBK262335] | 96.5 | – |
| Nc1ncc(-c2ccc3c(c2)OCO3)nc1Nc1ccc2[nH]ccc2c1 [CBK063667] | 94.6 | – |
| O=S(=O)(c1ccccc1Br)N1CCOCC1 [CBK062404] | 96.9 | – |

| SMILES | viability at 28.5 h, 10 µM [%] | viability at 28.5 h, 10 µM (bulk resorufin, single well) [%] |
| --- | --- | --- |
| COC(C(=O)N(C)C)C(OC)C(=O)N(C)C (centres unmarked) [CBK005447] | 111 | – |
| O=C(Nc1cccnc1)c1cc2cc(OC(F)(F)F)ccc2[nH]1 [CBK107313] | 95.1 | – |
| COc1ccccc1CNCc1ccc(CNC(=O)OC(C)(C)C)cc1 [CBK056702] | 100 | – |
| CCN1CCN(c2nccnc2OCc2cccnc2)CC1 [CBK083142] | 113 | – |
| Oc1cnnc(Nc2ccc(Nc3ccccc3)cc2)n1 [CBK287921] | 101 | – |
| COc1ccc(C(=O)C2=C(O)C(=O)N(CCCN(C)C)C2c2ccncc2)cc1C (centres unmarked) [CBK264871] | 102 | – |
| Cc1ccc(-c2ncc(OCCN(C(C)C)C(C)C)nc2N)cc1C [CBK145150] | 85.9 | – |
| CN(C)CCNC(=O)c1cccc(-c2cnc(N)c(N3CCN(C)CC3)n2)c1 [CBK063393] | 95 | – |
| Sc1nnc(-c2ccncc2)n1C1CCCCC1 [CBK288421] | 105 | – |
| Cc1c(Cl)cccc1NC(=S)NNC(=O)C(C)Oc1ccc(F)cc1F (centres unmarked) [CBK266823] | 97.8 | – |
| CC(=O)[C@H]1C[C@@H](CC(=O)Nc2ccc(Cl)nc2)C1(C)C [CBK091338] | 97.7 | – |
| O=C([C@H]1CN2CCC1C[C@@H]2Cn1cc(COc2ccccc2)nn1)N1CCOCC1 (some centres unmarked) [CBK288734] | 113 | – |
| Cc1cccc2c3c([nH]c12)C1(CCCN(C/C=C\c2ccccc2)C1)N(C=O)CC3 (centres unmarked) [CBK040265] | 92.4 | – |
| CC(Sc1ccc(S(=O)(=O)N2CCN(C)CC2)cn1)C(=O)Nc1ccc(C(C)(C)C)cc1 (centres unmarked) [CBK297551] | 106 | – |
| Cn1c(O)c(CCNc2cc([C@H]3C[C@@H](O)C3)nc(N)n2)cnc1=O [CBK306956] | 104 | – |
| CC(C)N1CCC(C(=O)NC(=O)NCCc2ccc3c(c2)OCO3)CC1 [CBK034804] | 96.6 | – |
| Cc1ccc(C(=O)NCCN2CCC(O)(c3ccc(F)cc3)CC2)o1 [CBK283167] | 86.3 | – |
| COC(=O)CN1C(=O)S/C(=C/c2ccc(OCc3cccc(C(=O)O)c3)c(Cl)c2)C1=O [CBK265262] | 90.2 | – |
| CC(=O)c1ccc(C(=O)Nc2nc3c(s2)COc2ccccc2-3)cc1 [CBK287363] | 81.9 | – |
| Cn1c(=O)n(C)c2cc(S(=O)(=O)NCCOc3ccc(C(=O)O)cc3)ccc21 [CBK299824] | 94.9 | – |
